Experimental data as given in publication PMC7214178, “Ligand‐specific recycling profiles determine distinct potential for chronic analgesic tolerance of delta‐opioid receptor (DOPr) agonists” (Journal of Cellular and Molecular Medicine, 2020).

Experiments:
[1] = test system: rat model of streptozotocin (STZ)‐induced diabetic neuropathy; test: Acute anti‐allodynic dose‐response after single i.t. injection (von Frey); assay type: in vivo; conditions: for Analgesia 60 min after injection vs vehicle: i.t. doses that reached maximal effect, one‐way ANOVA vs control, n = 3‐4; for Area under the curves, pEC50 ± SEM (M) / Peak analgesic response, pEC50 ± SEM (M): i.t. in 30 μL; for Area under the curves, pEC50 ± SEM (M) / Area under the curves, Relative EMAX ± SEM: analgesic response integrated over time (AUC); for Area under the curves, pEC50 ± SEM (M) / Peak analgesic response, pEC50 ± SEM (M) / Peak analgesic response, Relative EMAX ± SEM: four‐parameter logistic fit; for Area under the curves, pEC50 ± SEM (M) / Peak analgesic response, pEC50 ± SEM (M) / Area under the curves, Relative EMAX ± SEM / Peak analgesic response, Relative EMAX ± SEM: 3‐4 rats/dose; for Peak analgesic response, pEC50 ± SEM (M) / Peak analgesic response, Relative EMAX ± SEM: mechanical withdrawal threshold 30 min after injection; for Area under the curves, Relative EMAX ± SEM / Peak analgesic response, Relative EMAX ± SEM: normalized to maximal asymptote of agonist with largest effect
Text: Adult male Sprague Dawley (SD) rats, weighing 235‐250 g, were purchased from Charles River laboratories and housed in a controlled environment on a 12‐hour light/dark cycle with free access to food and water. All experimental methods and animal care procedures were approved by the Animal Care Committee of University of Montreal (CDEA protocol 15‐013), in accordance with the guiding principles as enunciated by the Canadian Council on Animal Care.
(§1) Type I diabetes was induced by systemic injection of streptozotocin (STZ, 65 mg/kg, i.p.) according to a standardized methodology, which allows development of persistent diabetic neuropathy after the first week of treatment. ^20 At the end of the first week, blood was extracted from the tail vein and blood glucose levels were measured with a glucometer (Accu‐Chek Aviva; Roche Diagnostics) prior to evaluation of analgesia on the second week.
(§2) Mechanical allodynia is the consequence of maladaptive neuroplasticity following nerve damage. ^24 In a model of diabetic neuropathy as the one used in this study, hyperglycaemia contributes to generate reactive oxygen species which induce microglia activation and inflammatory mediators. ^25 , ^26 These mediators attenuate the activity of Gly/GABA interneurons in superficial layers ^24 , ^27 , ^28 , ^29 and disrupt the inhibitory control that prevents innocuous touch stimuli from producing pain which leads to allodynia. ^30 DOPrs are expressed in these light‐touch mechanoreceptors ^31 and up‐regulated during sensitization, ^32 , ^33 making DOPr agonists elective for relieving this type of pain. Allodynia was evaluated using Von Frey filaments as previously described. ^19 Briefly, rats were accustomed for 15 min on a metal mesh floor under an inverted plastic box (20 × 10 × 10 cm) in a quiet room dedicated to this behavioural test. After habituation, the plantar surface of the right and left hind legs was alternately touched (6‐8 seconds) with von Frey filaments of progressively wider diameter in order to find the threshold of pressure required to produce withdrawal. The mechanical threshold response was obtained by consigning the pressure in grams that would result in withdrawal of the paw in 50% of 10 trials. A normal rat responds to tactile pressures of 12‐15 g whereas neuropathic rats respond to pressures of 4‐6 g. ^24
In a first series of experiments, dose‐response curves to SNC‐80, SB235863, deltorphin II and TIPP were constructed following intrathecal (i.t.) injection of increasing doses until no increment in maximal anti‐allodynic response was observed. […] Each group of rats received only one ligand and a single dose per day. Saturation of the analgesic response on mechanical allodynia required assessing 5‐6 doses per ligand administered over a period of 5‐6 days, using 3‐4 animals/dose. Injections were made at mid‐lumbar level with a needle 23G × 1/2 under light anaesthesia using 4% isoflurane inhalation in a 1:1 mixture of oxygen and air. The animals were allowed to recover for 15 minutes before mechanical thresholds were determined. Threshold measures were repeated every 15 minutes until the analgesic response disappeared. Peak analgesic responses (30 minutes) or responses integrated over time (area under the curve: AUC) were consigned and plotted as a function of treatment dose. Curves were fitted with the four‐parameter logistic equation in GraphPad 7 to yield ED80 and ED50 values that were then used to treat rats for assessment of chronic tolerance. For each drug, the stock solution was prepared as follows: deltorphin II was dissolved in sterile artificial cerebrospinal fluid (CSF); TIPP and SB235863 stocks were dissolved in sterile water and SNC‐80 in DMSO. Each stock solution was diluted in CSF at required concentrations and injected i.t. in a final volume of 30 μL. Control animals were injected with 30 μL of CSF. At the end of behavioural experiments, rats were anaesthetized by isoflurane and killed by decapitation.

DOPr [2] = test system: DOPr; parameters: method as in PMID 24174495; conditions: cited from earlier work
[3] = test system: rat model of streptozotocin (STZ)‐induced diabetic neuropathy; test: Heterologous tolerance to a common probe (deltorphin II ED50) before and after 6‐day treatment, with or without 6634449; assay type: in vivo; conditions: for Heterologous tolerance (response to deltorphin II ED50) with 6634449 co‐administration: 6634449 or vehicle i.t. 20 min before each of six agonist injections at ED80, five rats/group; for Tolerance to common probe deltorphin II (ED50) after 6‐day treatment: probe i.t. one day before and one day after six i.t. injections at ED80, 7 rats/group
Description: as §1, §2
(§3) To evaluate homologous tolerance, each agonist was injected i.t. once daily for six consecutive days, at ED80 derived from dose‐response curves (deltorphin‐IIED80: 0.30 nmol/30 μL; TIPPED80: 0.40 nmol/30 μL; SB235863ED80: 1.7 nmol/30 μL and SNC‐80ED80: 0.55 nmol/30 μL). Immediately after drug administration, mechanical allodynia was measured every 15 minutes until the analgesic response disappeared. […] Prior to starting any pharmacological treatment, the presence of allodynia was confirmed. Treatments and measures were carried out randomly by two different experimenters to ensure blinding to treatment for the person assessing allodynia. In a series of experiments, an inhibitor of endothelin‐converting enzyme 2 (ECE2), 6634449, was administered by i.t injection (3 nmol/30 μL) 20 minutes prior to administration of DOPr ligands from 2 to 7 days. The vehicle (4% DMSO diluted in CSF sterile) was given as control. The dose of 6634449 used in this study was based on results previously published. ^25
(§4) Figure 1 Experimental design. One week after STZ administration, repeated treatments with DOPr agonists were started. Before starting chronic treatment with ED80 of deltorphin II, TIPP, SB235863 or SNC‐80, animals were tested to establish the baseline allodynia. Immediately after, they were injected with deltorphin II at a dose corresponding to ED50, which was repeated at the end of treatment. Allodynia measures were taken every 15 min after each injection until analgesic effects disappeared. Chronic tolerance was evaluated by comparing analgesic response to successive i.t. injections of each agonist between days 2 and 6. Difference in analgesic response to deltorphin II ED50 in days 1 and 8 allowed to establish tolerance induced by the different agonists to this common probe

[4] = test system: rat model of streptozotocin (STZ)‐induced diabetic neuropathy; test: Chronic (homologous) analgesic tolerance over six daily i.t. injections at ED80, with or without ECE2 inhibitor 6634449; assay type: in vivo; conditions: for Anti‐allodynic response over 6‐day treatment: six consecutive i.t. injections at ED80, 24‐hour intervals, daily AUC, seven rats/group
Description: as §1, §2, §3, §4

DOPr [5] = test system: DOPr; parameters: method as in PMID 24174495; conditions: cited from earlier work; remark: listed apart in the source
[6] = i.t., anti‐allodynic effect, STZ rats

deltorphin II
Analgesia 60 min after injection vs vehicle [1]: no longer significantly different from vehicle
Area under the curves, pEC50 ± SEM (M) ([1]; STZ rats): 5.09 ± 0.05 M
Peak analgesic response, pEC50 ± SEM (M) ([1]; STZ rats): 5.22 ± 0.86 M
Area under the curves, Relative EMAX ± SEM ([1]; i.t., STZ rats): 80.5 ± 8.0
Peak analgesic response, Relative EMAX ± SEM ([1]; i.t., STZ rats): 91.0 ± 9.0
ED50 (challenge dose) [1, 6]: 0.23 nmol/30 μL
ED80 derived from dose‐response curves [1, 6]: 0.30 nmol/30 μL
Decay of cAMP inhibition in HEK cells (DOPr [2]): fast decay
Heterologous tolerance (response to deltorphin II ED50) with 6634449 co‐administration [3]: reduced analgesic effect
Tolerance to common probe deltorphin II (ED50) after 6‐day treatment [3]: without effect
Analgesic t 1/2 (95% CI), rats pre‐treated with ECE2 inhibitor 6634449 ([4]; 6634449 3 nmol/30 μL (0.1 mmol/L) i.t. 20 min before each daily i.t. agonist injection at ED80, five rats/group): ill‐defined
Tolerance / analgesia with 6634449 pre‐treatment compared with vehicle controls ([4]; 6634449 0.1 mmol/L i.t. 20 min before each agonist injection at ED80, five rats/group): significantly shorter
Day by which analgesic effects were reduced in animals exposed to 6634449 ([4]; 6634449 i.t. 20 min before each daily agonist injection at ED80): 4 days
Anti‐allodynic response over 6‐day treatment [4]: maintained its analgesic response
Analgesic t 1/2 (95% CI), rats pre‐treated with vehicle ([4]; vehicle i.t. 20 min before each daily i.t. agonist injection at ED80, five rats/group): no measurable decay t 1/2
Internalization in HEK cells (DOPr [5]): marked internalization

C=CCN1C[C@H](C)N([C@H](c2ccc(C(=O)N(CC)CC)cc2)c2cccc(OC)c2)C[C@H]1C [SNC‐80, (+)‐4‐[(αR)‐α‐((2S,5R)‐4‐allyl‐2,5‐dimethyl‐1‐piperazinyl)‐3‐methoxybenzyl]‐N,N‐diethylbenzamide]
Analgesia 60 min after injection vs vehicle [1]: no longer significantly different from vehicle
Area under the curves, pEC50 ± SEM (M) ([1]; STZ rats): 4.95 ± 0.18 M
Peak analgesic response, pEC50 ± SEM (M) ([1]; STZ rats): 5.15 ± 0.06 M
Area under the curves, Relative EMAX ± SEM ([1]; i.t., STZ rats): 87.9 ± 22.1
Peak analgesic response, Relative EMAX ± SEM ([1]; i.t., STZ rats): 100 ± 7.8
ED80 derived from dose‐response curves [1, 6]: 0.55 nmol/30 μL
Decay of cAMP inhibition in HEK cells (DOPr [2]): fast decay
Heterologous tolerance (response to deltorphin II ED50) with 6634449 co‐administration [3]: remained unchanged
Tolerance to common probe deltorphin II (ED50) after 6‐day treatment [3]: induced cross‐tolerance
Anti‐allodynic response over 6‐day treatment [4]: gradually decreased
Internalization in HEK cells (DOPr [5]): marked internalization

CCC(C)COC(=O)c1[nH]c2c(c1C)CC1C3Cc4ccc(OC)c5c4C1(CCN3C)C2O5.Cl (stereo not drawn) [SB235863, [8R‐(4bS*,8aα,8aβ,12bβ)]7,10‐dimethyl‐1‐methoxy‐11‐(2‐ethylpropyl)oxycarbonyl 5,6,7,8,12,12b‐hexahydro‐(9H)‐4,8‐methanobenzofuro[3,2‐e]pyrrolo[2,3‐g]isoquinoline hydrochloride]
Analgesia 60 min after injection vs vehicle [1]: still present
Area under the curves, pEC50 ± SEM (M) ([1]; STZ rats): 4.44 ± 0.03 M
Peak analgesic response, pEC50 ± SEM (M) ([1]; STZ rats): 4.50 ± 0.05 M
Area under the curves, Relative EMAX ± SEM ([1]; i.t., STZ rats): 100.6 ± 5.1
Peak analgesic response, Relative EMAX ± SEM ([1]; i.t., STZ rats): 84.4 ± 8.8
ED80 derived from dose‐response curves [1, 6]: 1.7 nmol/30 μL
Decay of cAMP inhibition in HEK cells (DOPr [2]): slow decay
Heterologous tolerance (response to deltorphin II ED50) with 6634449 co‐administration [3]: remained unchanged
Tolerance to common probe deltorphin II (ED50) after 6‐day treatment [3]: induced cross‐tolerance
Anti‐allodynic response over 6‐day treatment [4]: practically abolished
Internalization in HEK cells (DOPr [5]): minimal internalization
